Data set [1] deals with orthotopically grafted human pancreatic tumor of Mia Paca type (Mia PaCa 2-Luc cells). The data set is described as follows: Therapeutic efficacy in vivo on a murine model of human pancreatic cancer (two weekly injections, D7 and D14). As to conditions: 2 injections (D7 and D14), echography over 70 days, FIG. 2. Also noted: species or system Swiss Nude mice. The protocol:
The therapeutic efficacy of the conjugate of formula (III), as synthesized according to the reaction protocol described in example 1, was evaluated on 6-week-old female Swiss Nude mice (Charles River France Laboratories, l'Arbresle). The animals were acclimatized for 7 days in the laboratory before the experiment. The mice were housed in plastic cages equipped with filtering lids (HEPA filter), in a ventilated cage rack, housed at a temperature of 20±2° C. with a light/dark cycle of 12/12 hours, with free access to water and food ad libitum.
The Mia Paca 2 cells originate from a pancreatic adenocarcinoma from a person. The Mia Paca 2 pancreatic cancer cell line was supplied by the American Type Culture Collection (Rockville, Md.). These cells were chosen since they make it possible to generate tumors of hypoxic nature, reflecting the clinical pathological situation.
These cells were modified to express the luciferase gene (Mia PaCa 2-Luc). The cells were cultured in […] flasks and maintained in a humidified incubator at 37° C. in 5% CO2 with Dulbecco's Modified Eagle Medium (DMEM) supplemented with 10% of fetal calf serum, 2.5% of horse serum, 1% of L-glutamine and 1% of penicillin and streptomycin.
For the implantations, the abdomens of the mice were disinfected with an iodinated povidone solution (Betadine®, ASTA Medica, Belgium). A 1 cm incision was made in the upper left quadrant of the abdomen. The end of the tail of the pancreas was seized and the pancreas and also the spleen were gently externalized in a lateral direction so as to be fully exposed. The needle was inserted into the tail of the pancreas and positioned just in the region of the head of the pancreas. 2×10^6 Mia PaCa 2-Luc cells in 50 μl of PBS were slowly injected using a 27-caliber needle. The spleen was then put back into the appropriate position in the abdomen and the skin and the peritoneum were sutured with a 5.0-diameter resorbable thread. […]
The evolution of the tumor volume was monitored by echography. […]

Data set [2] relates to orthotopically grafted human breast tumor of MDA-MB-231 type (MDA-MB-231-Luc cells). The data set is described as follows: Therapeutic efficacy in vivo on a murine model of human breast cancer. Also noted: species or system Balb/c Nude mice. The protocol: The therapeutic efficacy of the conjugate of formula (III), as synthesized according to the reaction protocol described in example 1, was evaluated on 6-week-old female Balb/c Nude mice (Charles River France Laboratories—L'Arbresle) as indicated in example 3.
The MDA-MB-231 cells originate from a mammary adenocarcinoma from a person. The MDA-MB-231 mammary cancer cell line was supplied by Caliper LifeSciences (Roissy, France). These cells were chosen because they make it possible to generate tumors of hypoxic nature, reflecting the clinical pathological situation.
These cells are modified to express the luciferase gene. The cells were cultured in […] flasks and maintained in a humidified incubator at 37° C. under an atmosphere consisting of air, with Eagle's Minimal Essential Medium (EMEM) supplemented with 10% of fetal calf serum, 1% of L-glutamine, 1% of sodium pyruvate, 1% of non-essential amino acids, 2% of sodium bicarbonate and 1% of penicillin and streptomycin.
For the implantations, the abdomens of the mice were disinfected with an iodinated povidone solution (Betadine®, ASTA Medica, Belgium). The needle was inserted into the subcutaneous space, at the level of the lower left teat. 2×10^6 MDA-MB-231-Luc cells in 100 μl of PBS was slowly injected using a 27-caliber needle. The needle was then slowly withdrawn. For this, the mice will be anesthetized by inhalation of isoflurane (2% in air).
The mice (6 animals per group) received a treatment 15 days after the tumor implantations. The intravenous injections were carried out once a week for 5 weeks with doses of 4 mg/kg of conjugate of formula (III) (D15, D22, D29, D36 and D43). The control groups were treated either with MMAE alone with a dose of 0.3 mg/kg, or with the excipient consisting of a mixture of DMSO and PBS (5%/95%).
The evolution of the tumor volume was monitored by 3D echography. The measurements were carried out as described in example 2, on days 7, 11, 15, 19, 22, 25, 27, 29, 32, 34, 36, 39, 43 and 50.

Structures are written as SMILES. Where a SMILES comes first, the peptide text is derived from it. [ ]: non-standard residue; d: D form. The star is where a group is joined. Dolaproine = CO[C@@H]([C@@H]1CCCN1)[C@@H](C)C(=O)O; Dil = CC[C@H](C)[C@H](NC)[C@@H](CC(=O)O)OC; X1 = C[C@@H](N*)[C@@H](O)c1ccccc1; NMeV = CN[C@H](C(=O)O)C(C)C

Regarding `CC[C@H](C)[C@@H]([C@@H](CC(=O)N1CCC[C@H]1[C@H](OC)[C@@H](C)C(=O)N[C@H](C)[C@@H](O)c1ccccc1)OC)N(C)C(=O)[C@@H](NC(=O)[C@@H](NC)C(C)C)C(C)C` [MMAE, monomethyl auristatin E, reference compound] (H-[NMeV]V[Dil][Dolaproine]-X1), in data set [1] (0.3 mg/kg intravenous), the “evolution of the tumor volume” value is on record as “significant increase in the tumor volume is observed starting from day 35”. The “evolution of the tumor volume (antitumor activity versus control animals)” value in data set [2] (MMAE alone 0.3 mg/kg (FIG. 4 legend: 0.5 mg/kg) intravenous once a week for 5 weeks, FIG. 4 panel B) is reported as “only a very modest antitumor activity”.
With `CC[C@@H](C)[C@H]([C@H](CC(=O)N1CCC[C@@H]1[C@@H](OC)[C@H](C)C(=O)N[C@@H](C)[C@H](O)c1ccccc1)OC)N(C)C(=O)[C@H](NC(=O)[C@@H](C(C)C)N(C)C(=O)OC(Cc1cn(CCOCCOCCOCCOCCOCCOCCOCCOCCOCCOCCNC(=O)CCCCCN2C(=O)C=CC2=O)nn1)c1ccc(O[C@@H]2OC(C(=O)O)[C@@H](O)[C@H](O)C2O)c([N+](=O)[O-])c1)C(C)C` (stereo partly drawn) [conjugate of formula (III)], the “evolution of the tumor volume” value in data set [1] (2 mg/kg intravenous) is “the progression of the tumor volume is slower than with the control or the non-functionalized MMAE”; in data set [1] (4 mg/kg intravenous), “total absence of tumor growth”; in data set [2] (4 mg/kg intravenous once a week for 5 weeks (D15-D43), echography for 50 days, FIG. 4 panel C), “total and long-lasting regression of the tumor”. Also, in data set [2] (4 mg/kg intravenous once a week for 5 weeks), the visible side effects entry was “without visible side effects”.

The values are drawn from US10293021B2, “Conjugates and prodrugs for treating cancer and inflammatory diseases” (CENTRE NATIONAL DE LA RECHERCHE SCIENTIFIQUE, priority 2014, dated 2019).
